Experimental data published in patent publication US20250314644A1, “METHODS COMPRISING DETECTION OF ADP-HEPTOSE” (CHILDREN'S HOSPITAL MEDICAL CENTER, priority 2023, published 2025).

Legend:
Type in all cases: in vivo, mouse
[1] = Quantification of bacterial DNA (16S) in blood by real-time PCR; settings: DSS-induced intestinal barrier dysfunction in mice
From the text: The previously described protocol to examine bacterial translocation into blood was used. (Luo, Z., et al. CRIg(+) Macrophages Prevent Gut Microbial DNA-Containing Extracellular Vesicle-Induced Tissue Inflammation and Insulin Resistance. Gastroenterology 160, 863-874 (2021); Tabuchi, Y., et al. Oral dextran sulfate sodium administration induces peripheral spondyloarthritis features in SKG mice accompanied by intestinal bacterial translocation and systemic Th1 and Th17 cell activation. Arthritis Res Ther 24, 176 (2022)) Whole blood was collected by cheek bleeding in sterile BD Microtainer Capillary Blood Collector and Microgard Closure tubes (Cat No. 13-680-62, Fisher Scientific) on ice from each mouse using Goldenrod Animal Lancets 4 mm (Cat No. NC9922361, Braintree Scientific), and genomic DNA extracted using DNeasy Blood & Tissue Kit (Cat No. 69504, Qiagen). qPCR was performed using Femto Bacterial DNA Quantification Kit (Cat. No. E2006, Zymo Research) according to the manufacturers' instructions. Samples with a Ct value more than 35 cycles or undetectable were counted as 0 μg/ml.

Dnmt3a^−/− HSCs = assay: DSS gut injury in low-dose irradiated chimeric mice, with or without antibiotics pre-treatment
From the text: To model pre-leukemic clonal hematopoiesis, chimeric mice were generated as aas follows. Briefly, mixture of 1×10^6 whole bone marrow cells (WBM) were obtained from Poly (I:C) treated wild-type (Dnmt3a^+/+; MxCre^+, called Dnmt3a^WT) or mutant mice (Dnmt3a^f/f; MxCre^+, called Dnmt3a^KO) or double mutant mice (Dnmt3a^f/f; MxCre^+; Alpk1^KO, called Dnmt3a^KO; Alpk1^KO) (CD45.2^+), and transplanted into low-dose (2.5 Gy) irradiated recipient mice (CD45.1^+; 6-10 weeks of age). 8 weeks post-transplant, chimeric mice were treated with either water (H2O) or DSS (2.5%) for 1 week, and allowed to recover for 1 more week on water after which flow cytometry was performed on BM. In separate experiment, chimeric mice were pre-treated with broad spectrum antibiotics (ABX) for 4 weeks, and then subjected to DSS for 1 week after which flow cytometry performed on BM. In a separate set of experiment, chimeric mice were treated with either H2O or ADP-heptose (0.5 mg/kg) for 2 weeks, and flow cytometry performed after 2 more weeks on BM. […]
Mice were treated with 2.5% DSS (wt/vol) (MW: 36,000-50,000 Da, Cat No. 216011090, MP Biomedicals) in autoclaved drinking water to induce gut injury-associated colitis as mentioned before. […] Mice were monitored daily for weight loss, stool consistency, and the presence of frank blood in the stool. […]

[2] = UHPLC-MS/MS measurement of ADP-heptose in plasma and BM; settings: DSS-induced intestinal barrier dysfunction in mice
Experimental: To measure ADP-heptose, lysates were prepared as described previously. (Gaudet, R. G., et al. INNATE IMMUNITY. Cytosolic detection of the bacterial metabolite HBP activates TIFA-dependent innate immunity. Science 348, 1251-1255 (2015).) Briefly, bacterial culture suspensions of various mouse tissues and human plasma samples were first spun at 4000 g for 5 minutes. Next, pellets were suspended in 1 ml of sterile water. Bacterial cells were then lysed by heating at 95° C. for 15 minutes. Next, lysates were centrifuged at 4000 g for 3 minutes and supernatants filtered through a 0.20 μm syringe filter using 1 ml syringe and needle. Finally, lysates were stored at −80° C. until further processing for Mass Spectrometry. Following a previously established protocol, lysates were prepared. (Pfannkuch, L., et al. ADP heptose, a novel pathogen-associated molecular pattern identified in Helicobacter pylori. FASEB J 33, 9087-9099 (2019).) Briefly, 500 μl of the cleared bacterial lysate was thawed from −80° C. and extracted by addition of 1 ml chloroform/methanol (v:v 2:1) and vortexed and centrifuged (5 min, 10,000 g). […]
The concentration of ADP-heptose was determined using an ultrahigh-performance liquid chromatography-electrospray ionization-mass spectrometry (UHPLC-ESI-MS/MS) method by modifying our previously described protocol. […]

dextran sulfate sodium [DSS]
copies of 16S rRNA in the blood [1]: increased copies
expansion of Dnmt3a^−/− HSCs in the BM (Dnmt3a^−/− HSCs): significant expansion
ADP-heptose in BM and PB plasma by mass spectrometry [2]: circulating ADP-heptose in the BM and PB plasma
